# Patent US20140088124A1, “IMIDAZOLE DERIVATIVES” (priority 2011, published 2014)
# Target: T1, human DGAT1 (Homo sapiens, UniProt O75907)
# T1 sequence (O75907 1-488): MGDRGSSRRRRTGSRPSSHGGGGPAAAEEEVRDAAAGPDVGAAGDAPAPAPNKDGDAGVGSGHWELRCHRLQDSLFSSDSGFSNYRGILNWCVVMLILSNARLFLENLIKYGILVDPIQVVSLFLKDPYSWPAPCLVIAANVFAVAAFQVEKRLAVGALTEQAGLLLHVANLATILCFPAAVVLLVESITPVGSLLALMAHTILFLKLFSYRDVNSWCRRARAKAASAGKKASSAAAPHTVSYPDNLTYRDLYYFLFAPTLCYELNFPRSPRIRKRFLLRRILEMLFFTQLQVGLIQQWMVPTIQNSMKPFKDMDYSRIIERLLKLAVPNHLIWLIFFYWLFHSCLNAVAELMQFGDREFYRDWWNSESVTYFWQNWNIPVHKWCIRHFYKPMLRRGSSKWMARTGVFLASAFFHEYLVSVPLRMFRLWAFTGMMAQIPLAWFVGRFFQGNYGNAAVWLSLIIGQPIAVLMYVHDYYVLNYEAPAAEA
# Experiment: DGAT1 CPM Assay
# Type: biochemical
# Details: human DGAT1, CPM fluorescence, 1 hour incubation at room temperature
# Description: 20 uL of 90 uM CPM reagent in 90% ethanol was added after 1 hour incubation at room temperature.
row,SMILES,IC50
1,"O=C(O)C[C@H]1CC[C@H](OC2CCN(c3ccc(-c4nc5ccc(F)cc5[nH]4)cn3)CC2)CC1 [Example 1, [trans-4-({1-[5-(6-fluoro-1H-benzimidazol-2-yl)pyridin-2-yl]piperidin-4-yl}oxy)cyclohexyl]acetic acid]",6 nM
2,"O=C(O)C[C@H]1CC[C@@H](OC2CCN(c3ccc(-c4nc5ccc(F)cc5[nH]4)cn3)CC2)CC1 [Example 2, [cis-4-({1-[5-(6-fluoro-1H-benzimidazol-2-yl)pyridin-2-yl]piperidin-4-yl}oxy)cyclohexyl]acetic acid]",8 nM
3,"CCOc1ccc2nc(-c3ccc(N4CCC(O[C@H]5CC[C@H](CC(=O)O)CC5)CC4)nc3)[nH]c2n1 [Example 4, [trans-4-({1-[5-(5-ethoxy-3H-imidazo[4,5-b]pyridin-2-yl)pyridin-2-yl]piperidin-4-yl}oxy)cyclohexyl]acetic acid]",27 nM
4,O=C(O)C[C@H]1CC[C@@H](OC2CCN(c3ccc(-c4nc5ccc(C(F)(F)F)cc5[nH]4)cn3)CC2)CC1 [Example 5],5 nM
5,O=C(O)C[C@H]1CC[C@H](OC2CCN(c3ccc(-c4nc5ccccc5[nH]4)cn3)CC2)CC1 [Example 7],19 nM
6,O=C(O)C[C@H]1CC[C@@H](OC2CCN(c3ccc(-c4nc5ccccc5[nH]4)cn3)CC2)CC1 [Example 8],15 nM
7,CCOc1ccc2nc(-c3ccc(N4CCC(O[C@H]5CC[C@@H](CC(=O)O)CC5)CC4)nc3)[nH]c2n1 [Example 9],20 nM
8,Cc1nc(N2CCC(O[C@H]3CC[C@H](CC(=O)O)CC3)CC2)ccc1-c1nc2ccccc2[nH]1 [Example 10],7900 nM
9,Cc1nc(N2CCC(O[C@H]3CC[C@@H](CC(=O)O)CC3)CC2)ccc1-c1nc2ccccc2[nH]1 [Example 11],6600 nM
10,Cc1cc(N2CCC(O[C@H]3CC[C@H](CC(=O)O)CC3)CC2)ncc1-c1nc2ccccc2[nH]1 [Example 12],349 nM
11,Cc1cc(N2CCC(O[C@H]3CC[C@@H](CC(=O)O)CC3)CC2)ncc1-c1nc2ccccc2[nH]1 [Example 13],147 nM
12,O=C(O)C[C@H]1CC[C@H](OC2CCN(c3ccc(-c4nc5cccc(Br)c5[nH]4)cn3)CC2)CC1 [Example 14],7 nM
13,O=C(O)C[C@H]1CC[C@H](OC2CCN(c3ccc(-c4nc5cc(C(F)(F)F)cnc5[nH]4)cn3)CC2)CC1 [Example 17],24 nM

# Continued, values first:
row,IC50,SMILES
1,12 nM,"O=C(O)C[C@H]1CC[C@@H](OC2CCN(c3ccc(-c4nc5cc(F)ccc5[nH]4)cn3)C2)CC1 (single isomer, unassigned) [Example 139]"
2,89 nM,"O=C(O)C[C@H]1CC[C@@H](OC2CCN(c3ccc(-c4nc5cc(F)ccc5[nH]4)cn3)C2)CC1 (single isomer, unassigned) [Example 140]"
3,23 nM,"O=C(O)C[C@H]1CC[C@@H](O[C@H]2C[C@H]3C[C@@H]2CN3c2ccc(-c3nc4cc(F)ccc4[nH]3)cn2)CC1 (single isomer, unassigned; enantiomer 1) [Example 28, [cis-4-({2-[5-(5-fluoro-1-benzimidazol-2-yl)pyridin-2-yl]-2-azabicyclo[2.2.1]hept-5-yl}oxy)cyclohexyl]acetic acid enantiomer 1]"
4,5000 nM,"O=C(O)C[C@H]1CC[C@@H](O[C@@H]2CC3C[C@H]2CN3c2ccc(-c3nc4cc(F)ccc4[nH]3)cn2)CC1 (single isomer, unassigned; enantiomer 2) [Example 29, [cis-4-({2-[5-(5-fluoro-1H-benzimidazol-2-yl)pyridin-2-yl]-2-azabicyclo[2.2.1]hept-5-yl}oxy)cyclohexyl]acetic acid enantiomer 2]"
5,2 nM,O=C(O)C[C@H]1CC[C@H](OC2CCN(c3ccc(-c4nc5cc(F)c(F)c(Br)c5[nH]4)cn3)CC2)CC1 [Example 15]
6,4 nM,"O=C(O)C[C@H]1CC[C@H](OC2CCN(c3ccc(-c4nc5cc(F)c(F)cc5[nH]4)cn3)CC2)CC1 [Example 16, [trans-4-({1-[5-(5,6-difluoro-1H-benzimidazol-2-yl)pyridin-2-yl]piperidin-4-yl}oxy)cyclohexyl]acetic acid]"
